Test results published in PubChem BioAssay (NCI).
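Briefly, cells in 96-well plates were exposed to five compound concentrations for 48 h, and endpoints were estimated by linear interpolation. The concentration for full growth arrest is given as TGI.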

Assays:
Assay in all cases: NCI anticancer screen, dose series, 48 h
[1] = test system: MDA-MB-435
[2] = test system: SK-MEL-2 melanoma
[3] = test system: MCF7 breast
[4] = test system: SK-MEL-28 melanoma
[5] = test system: UO-31 renal
[6] = test system: OVCAR-4 ovarian
[7] = test system: CAKI-1 renal
[8] = test system: SNB-19 CNS
[9] = test system: SR leukemia
[10] = test system: SK-MEL-5 melanoma
[11] = test system: U251 CNS
[12] = test system: MDA-N
[13] = test system: CCRF-CEM leukemia
[14] = test system: BT-549 breast
[15] = test system: MALME-3M melanoma
[16] = test system: A549 NSCLC
[17] = test system: ACHN renal
[18] = test system: NCI-H23 lung
[19] = test system: COLO 205 colon
[20] = test system: HL-60(TB) leukemia
[21] = test system: HT29 colon
[22] = test system: PC-3 prostate
[23] = test system: HCT-116 colon
[24] = test system: OVCAR-5 ovarian
[25] = test system: 786-0 renal
[26] = test system: HCT-15 colon
[27] = test system: DU-145 prostate
[28] = test system: RPMI-8226 leukemia
[29] = test system: SF-295 CNS
[30] = test system: TK-10 renal
[31] = test system: UACC-257 melanoma
[32] = test system: M14 melanoma
[33] = test system: HOP-92 NSCLC
[34] = test system: NCI-H460 lung
[35] = test system: KM12 colon
[36] = test system: OVCAR-8 ovarian
[37] = test system: OVCAR-3 ovarian
[38] = test system: MOLT-4 leukemia
[39] = test system: EKVX NSCLC
[40] = test system: LOX IMVI melanoma
[41] = test system: K-562 leukemia
[42] = test system: HCC-2998 colon
[43] = test system: MDA-MB-231 breast
[44] = test system: SN12C renal
[45] = test system: NCI/ADR-RES ovarian
[46] = test system: HOP-62 NSCLC
[47] = test system: NCI-H522 lung
[48] = test system: SW-620 colon
[49] = test system: NCI-H226 lung
[50] = test system: HS 578T breast
[51] = test system: SF-268 CNS
[52] = test system: SK-OV-3 ovarian
[53] = test system: IGROV1 ovarian
[54] = test system: SF-539 CNS
[55] = test system: UACC-62 melanoma
[56] = test system: SNB-75 CNS
[57] = test system: RXF 393 renal
[58] = test system: A498 renal
[59] = test system: T-47D breast

O=C(O)CCCn1nnc2c(=O)[nH][nH]c(=O)c21
TGI [1]: > 100 µM
TGI [2]: > 100 µM
TGI [3]: > 100 µM
TGI [4]: > 100 µM
TGI [5]: > 100 µM
TGI [6]: > 100 µM
TGI [7]: > 100 µM
TGI [8]: > 100 µM
TGI [9]: > 100 µM
TGI [10]: > 100 µM
TGI [11]: > 100 µM
TGI [12]: > 100 µM
TGI [13]: > 100 µM
TGI [14]: > 100 µM
TGI [15]: > 100 µM
TGI [16]: > 100 µM
TGI [17]: > 100 µM
TGI [18]: > 100 µM
TGI [19]: > 100 µM
TGI [20]: > 100 µM
TGI [21]: > 100 µM
TGI [22]: > 100 µM
TGI [23]: > 100 µM
TGI [24]: > 100 µM
TGI [25]: > 100 µM
TGI [26]: > 100 µM
TGI [27]: > 100 µM
TGI [28]: > 100 µM
TGI [29]: > 100 µM
TGI [30]: > 100 µM
TGI [31]: > 100 µM
TGI [32]: > 100 µM
TGI [33]: > 100 µM
TGI [34]: > 100 µM
TGI [35]: > 100 µM
TGI [36]: > 100 µM
TGI [37]: > 100 µM
TGI [38]: > 100 µM
TGI [39]: > 100 µM
TGI [40]: > 100 µM
TGI [41]: > 100 µM
TGI [42]: > 100 µM
TGI [43]: > 100 µM
TGI [44]: > 100 µM
TGI [45]: > 100 µM
TGI [46]: > 100 µM

O=P1(O)c2ccccc2CCc2ccccc21
TGI [1]: > 100 µM
TGI [2]: > 100 µM
TGI [47]: > 100 µM
TGI [3]: > 100 µM
TGI [4]: > 100 µM
TGI [48]: > 100 µM
TGI [49]: > 100 µM
TGI [5]: > 100 µM
TGI [7]: > 100 µM
TGI [8]: > 100 µM
TGI [10]: > 100 µM
TGI [12]: > 100 µM
TGI [50]: > 100 µM
TGI [13]: > 100 µM
TGI [14]: > 100 µM
TGI [16]: > 100 µM
TGI [51]: > 100 µM
TGI [52]: > 100 µM
TGI [18]: > 100 µM
TGI [53]: > 100 µM
TGI [19]: > 100 µM
TGI [54]: > 100 µM
TGI [22]: > 100 µM
TGI [23]: > 100 µM
TGI [25]: > 100 µM
TGI [55]: > 100 µM
TGI [26]: > 100 µM
TGI [27]: > 100 µM
TGI [28]: > 100 µM
TGI [29]: > 100 µM
TGI [56]: > 100 µM
TGI [30]: > 100 µM
TGI [31]: > 100 µM
TGI [32]: > 100 µM
TGI [33]: > 100 µM
TGI [35]: > 100 µM
TGI [36]: > 100 µM
TGI [37]: > 100 µM
TGI [38]: > 100 µM
TGI [39]: > 100 µM
TGI [40]: > 100 µM
TGI [41]: > 100 µM
TGI [57]: > 100 µM
TGI [42]: > 100 µM
TGI [43]: > 100 µM
TGI [44]: > 100 µM
TGI [46]: > 100 µM

c1ccc(CCCCNCc2cc(CNCCCCc3ccccc3)cc(CNCCCCc3ccccc3)c2)cc1
TGI [4]: 1.84 µM
TGI [5]: 0.949 µM
TGI [8]: 0.908 µM
TGI [12]: 10.2 µM
TGI [13]: 0.432 µM
TGI [14]: 2.83 µM
TGI [16]: 0.326 µM
TGI [52]: 3.41 µM
TGI [17]: 2.95 µM
TGI [18]: 2.11 µM
TGI [19]: 0.644 µM
TGI [20]: 0.434 µM
TGI [23]: 6.42 µM
TGI [24]: 3.22 µM
TGI [25]: 26.4 µM
TGI [26]: 0.368 µM
TGI [27]: 2.07 µM
TGI [29]: 3.06 µM
TGI [32]: 0.33 µM
TGI [34]: > 100 µM
TGI [37]: 2.77 µM
TGI [41]: > 100 µM
TGI [44]: 23.5 µM
TGI [45]: 1.1 µM

CC(=O)N(C(C)=O)n1c(Cc2ccc(Cl)cc2)n[nH]c1=O
TGI [1]: > 100 µM
TGI [2]: > 100 µM
TGI [47]: > 100 µM
TGI [3]: > 100 µM
TGI [4]: > 100 µM
TGI [48]: > 100 µM
TGI [49]: > 100 µM
TGI [5]: > 100 µM
TGI [6]: > 100 µM
TGI [7]: > 100 µM
TGI [8]: > 100 µM
TGI [9]: > 100 µM
TGI [58]: > 100 µM
TGI [10]: > 100 µM
TGI [11]: > 100 µM
TGI [12]: > 100 µM
TGI [50]: > 100 µM
TGI [13]: > 100 µM
TGI [14]: > 100 µM
TGI [15]: > 100 µM
TGI [16]: > 100 µM
TGI [51]: > 100 µM
TGI [52]: > 100 µM
TGI [17]: > 100 µM
TGI [18]: > 100 µM
TGI [53]: > 100 µM
TGI [19]: > 100 µM
TGI [54]: > 100 µM
TGI [20]: > 100 µM
TGI [21]: > 100 µM
TGI [22]: > 100 µM
TGI [23]: > 100 µM
TGI [24]: > 100 µM
TGI [25]: > 100 µM
TGI [55]: > 100 µM
TGI [26]: > 100 µM
TGI [27]: > 100 µM
TGI [28]: > 100 µM
TGI [29]: > 100 µM
TGI [56]: > 100 µM
TGI [30]: > 100 µM
TGI [31]: > 100 µM
TGI [32]: > 100 µM
TGI [33]: > 100 µM
TGI [34]: > 100 µM
TGI [35]: > 100 µM
TGI [36]: > 100 µM
TGI [37]: > 100 µM
TGI [38]: > 100 µM
TGI [39]: > 100 µM
TGI [40]: > 100 µM
TGI [41]: > 100 µM
TGI [57]: > 100 µM
TGI [42]: > 100 µM
TGI [43]: > 100 µM
TGI [44]: > 100 µM
TGI [45]: > 100 µM
TGI [46]: 98.8 µM

Cc1c(C)c(C)n(C2OC(CO)C(O)C(O)C2O)c(=S)c1C#N (stereo not given)
TGI [1]: > 100 µM
TGI [2]: > 100 µM
TGI [47]: > 100 µM
TGI [3]: > 100 µM
TGI [4]: > 100 µM
TGI [48]: > 100 µM
TGI [49]: > 100 µM
TGI [5]: > 100 µM
TGI [6]: > 100 µM
TGI [8]: > 100 µM
TGI [9]: > 100 µM
TGI [58]: > 100 µM
TGI [10]: > 100 µM
TGI [11]: > 100 µM
TGI [12]: > 100 µM
TGI [13]: > 100 µM
TGI [15]: > 100 µM
TGI [16]: > 100 µM
TGI [51]: > 100 µM
TGI [52]: > 100 µM
TGI [17]: > 100 µM
TGI [18]: > 100 µM
TGI [53]: > 100 µM
TGI [19]: > 100 µM
TGI [54]: > 100 µM
TGI [20]: > 100 µM
TGI [21]: > 100 µM
TGI [22]: > 100 µM
TGI [23]: > 100 µM
TGI [24]: > 100 µM
TGI [25]: > 100 µM
TGI [55]: > 100 µM
TGI [26]: > 100 µM
TGI [27]: > 100 µM
TGI [29]: > 100 µM
TGI [56]: > 100 µM
TGI [30]: > 100 µM
TGI [31]: > 100 µM
TGI [32]: > 100 µM
TGI [33]: > 100 µM
TGI [34]: > 100 µM
TGI [35]: > 100 µM
TGI [36]: > 100 µM
TGI [37]: > 100 µM
TGI [38]: > 100 µM
TGI [39]: > 100 µM
TGI [40]: > 100 µM
TGI [41]: > 100 µM
TGI [57]: > 100 µM
TGI [42]: > 100 µM
TGI [43]: > 100 µM
TGI [59]: > 100 µM
TGI [44]: > 100 µM
TGI [45]: > 100 µM
TGI [46]: > 100 µM
